“Also recorded” adds a separate entry of the source.

The subject of data set [1] is A2780/cis ovarian (cisplatin-resistant). Put plainly: MTT growth inhibition assay, A2780/cis. The conditions noted are these: 96 h. The format is cell-based, human. On the procedure: (§1) Tumor cell growth inhibition was assessed using the MTT assay.^13 2×10^3 cells were inoculated into a 96-well plate and incubated overnight at 37° C. in a humidified atmosphere containing 5% CO2. Complexes were solubilised in DMSO as above, and then diluted in complete cell culture medium to give a broad range of concentrations. Cisplatin was included in the screen as a comparator. Medium was removed from each well and replaced with complex or control solutions, and the plates then incubated for a further 96 hours. After 96 h culture medium was removed and 200 μL of 0.5 mg mL^−1 MTT solution (Sigma) in complete medium added to each well. Following further 4 h incubation, the solution was removed from each well and 150 μL of DMSO (Sigma) added to solubilise the formazan crystals resulting from MTT conversion. Absorbance values for the resulting solutions were read at 550 nm on a microplate reader and cell survival calculated as the absorbance of treated cells divided by the control. Results were expressed in terms of IC50 values (i.e. concentration of compound required to kill 50% of cells) and all experiments were performed in triplicate.
(§2) The following human cancer cell lines were cultured in RPMI 1640 cell culture medium supplemented with 1 mM sodium pyruvate, 2 mM L-glutamine and 10% fetal bovine serum (all from Sigma): A549 non-small cell lung, HCT-116 colon, MCF-7 breast, PC-3 prostate (all from LGC Promochem, Teddington, UK), A2780/cis ovarian (cisplatin-resistant) and RT-112 bladder (both from ECACC, Salisbury, UK).
Background: Tetrazolium assays rely on reduction of a dye to a coloured formazan, in cell work by metabolically active cells.

Data set [2] has as its system HCT-116 colon. Put plainly: MTT growth inhibition assay, HCT-116. The conditions noted are these: 96 h. The format is cell-based, human. As for the experimental part: as §1, §2
The subject of data set [3] is MCF-7 breast. Put plainly: MTT growth inhibition assay, MCF-7. The conditions noted are these: 96 h. It is filed as cell-based, human. As for the experimental part: as §1, §2
Data set [4] concerns PC-3 prostate. Put plainly: MTT growth inhibition assay, PC-3. It is filed as cell-based, human. To be noted: 96 h. On the procedure: as §1, §2
In data set [5] the test system is RT-112 bladder. Put plainly: MTT growth inhibition assay, RT-112. It is filed as cell-based, human. To be noted: MTT, 96 h. As for the experimental part:
as §1, §2

For data set [6], the system named is human tumor 60-cell line panel. Put plainly: NCI/DTP human tumor 60-cell line panel screen. The format is cell-based. To be noted: NCI 60-cell line panel, MG-MID, 48 h. On the procedure:
The cells were treated for 48 h at five concentrations ranging from 0.01 to 100 μM. Three endpoints were calculated: GI 50 (the concentration inhibits cell growth by 50%):
TGI (the concentration inhibits cell growth by 100%)
LC 50 (the concentration kills original cells by 50%)
MG-MID (full-panel mean-graph midpoint).

For data set [7], the system named is Leukemia HL-60 (TB). Put plainly: NCI 60-cell line screen, HL-60 (TB). It is filed as cell-based, human. To be noted: 48 h. As for the experimental part: (§3) The cells were treated for 48 h at five concentrations ranging from 0.01 to 100 μM. Three endpoints were calculated: GI 50 (the concentration inhibits cell growth by 50%): […]
For data set [8], the system named is Leukemia MOLT-4. Put plainly: NCI 60-cell line screen, MOLT-4. It is filed as cell-based, human. To be noted: Leukemia MOLT-4, 48 h. As for the experimental part: as §3
Data set [9] has as its system colon cancer OoLO 205. Put plainly: NCI 60-cell line screen, colon cancer line. The conditions noted are these: colon cancer OoLO 205, 48 h. It is filed as cell-based, human. On the procedure: as §3
Data set [10] deals with tubulin. Put plainly: Tubulin polymerization assay. It is filed as biochemical. To be noted: Osmium Compounds at 10 μM; 37° C., 60 min. As for the experimental part:
To follow the anticancer mechanism indicated by COMPARE, We have investigated whether osmium complexes can interacted directly with tubulin.
A Cytoskeleton tubulin polymerization assay kit (catalog no BK004) was used in the tubulin polymerization study. Briefly, 10 μL of general tubulin buffer (80 mM PIPES, pH 6.9, 2 mM MgCl2, and 0.5 mM EGTA) containing osmium compound, colchicine or taxol was pipetted into the prewarmed 96 well microplate. Tubulin (defrosted to room temperature from −80° C. and then placed on ice before use) was diluted with tubulin polymerization buffer with 1 mM GTP to a final concentration of 4 mg mL^−1. Diluted tubulin (100 μL) was added into the wells containing osmium compound, colchicine or taxol. Diluted tubulin (100 μL) mixed with general tubulin buffer (10 μL) served as control. The absorbance at 340 nm was read immediately with a Tecan microplate reader.

Data set [11] deals with microtubules in A2780 human ovarian cancer cell line. Put plainly: Immunofluorescence of microtubules by confocal microscopy. It is filed as cell-based. The conditions noted are these: 24 h treatment, 1 μM. On the procedure: A2780 Cells were seeded on Lab-Tek™ Chamber Slides (Thermo Scientific Nunc) 10,000 cells/chamber, after 24 h incubation, osmium compound [Os(η^6-bip)(2-F-Azpy)I]PF6 at different concentrations were added and incubate for another 24 h. Cells were fixed with 4% formaldehyde in PBS (20 min, 310 K), then rinsed with PBS (3×2 mL×2 min), and permeabilized with 0.1% Triton X-100 solution (PBS solution) for 15 min at ambient temperature. The cells were blocked with blocking buffer (2 mg/mL BSA, overnight at […]), and then, the cell monolayers were incubated (1 h, 310 K) with monoclonal anti-α-tubulin-Alexa 488 (4 μg/mL) (Invitrogen Molecular Probles, Catalog No. 32-2588). After the incubation, the cells were washed with PBS and the immunofluorescence was detected using a Leica SP5 fluorescence confocal microscope, with 100× objective.

Data set [12] concerns Balb/c immunodeficient nude mice bearing HCT-116 tumours. Put plainly: Evaluation of in vivo toxicity in nude mouse HCT-116 xenograft model. The conditions noted are these: i.v. day 0, doses from 2 up to 40 mg kg^−1, monitored 15 days. As for the experimental part:
Female Balb/c immunodeficient nude mice (Harlan, Loughborough, UK) aged 6-12 weeks were used. Mice received Harlan 2018 diet (Harlan) and water ad libitum. Mice were kept in cages in an air-conditioned room with regular alternating cycles of light and darkness. All animal procedures were carried out under a project license issued by the UK Home Office and UKCCCR guidelines (Workman P, Twentyman P, Balkwill F et al: United Kingdom Co-ordinating Committee on Cancer Research (UKCCCR) Guidelines for the Welfare of Animals in Experimental Neoplasia (Second Edition). Br J Cancer 77: 1-10, 1998) were followed throughout.
HCT-116 was used in the study. Tumours were excised from a donor animal, placed in sterile physiological saline containing antibiotics and cut into small fragments of approximately 2 mm^3. Under brief general inhalation anaesthesia, fragments were implanted in the […] abdominal flank of each mouse using a trocar. Once the tumours could accurately be measured using callipers (mean tumour volume of approximately 50 mm^3), treatment commenced. Complexes 3 and 6 were solubilised in 10% DMSO; 5% Tween-80; 85% saline and were administered intravenously to groups of 2 mice on day 0. Animals were weighed frequently and monitored for any deleterious effects over a period of 15 days.

Data set [13] can be described thus: Stability and hydrolysis (1H NMR, MS, UV-vis). The format is physicochemical. To be noted: 310 K, 24 h, 95% deuterated phosphate buffer (10 mM)/5% MeOD-d4.
Data set [14] has as its system HCT-116 colon adenocarcinoma s.c. xenograft model. Put plainly: In vivo efficacy in HCT-116 s.c. xenograft model.
Where [15] appears, read: 40.0 mg kg^−1, single intravenous injection.

In the case of “[(η^6-p-cym)Os(Azpy-NMe2)I]PF6 [Complex 6]”, the IC50 in data set [1] was below 0.3 µM; in data set [2], below 0.3 µM; in [3], 0.079 µM; in data set [4], 0.6 µM; in data set [5], below 0.3 µM. The 50% growth inhibitory concentration (GI50) is 0.28 µM in data set [6], below 0.05 µM in data set [7], below 0.05 µM in data set [8] and below 0.05 µM in [9]. The 50% lethal concentration (LC50) in data set [6] worked out at 6.3 µM. The substance further came in with a concentration for total growth inhibition (TGI) in data set [6] of 1.17 µM. In data set [10], the “Inhibition of Tubulin Polimerziation” value is listed as 28.6%. Besides, the “inhibition of microtubule formation in cells” value in [11] is on record as “inhibition forming microtubules were observed”. In addition, in data set [12], the “toxicity / deleterious effects” value is reported as “no evident toxicity; also recorded: negligible deleterious effects”. For the same substance, the “stability and hydrolysis in aqueous solution” value in [13] is “remained stable and did not hydrolyze”. Also, the “Maximum % weight loss” value in data set [14] (setting [15]) is recorded as 8%. Besides, in [14] (setting [15]), the “Median tumour doubling time” value came to 6.2 days. Also, the “day of maximum % weight loss” value in [14] (setting [15]) amounted to 1 days. Moreover, in data set [14] (single i.v. 40 mg/kg), the toxicity result is listed as “negligible toxicity”. Besides, in [14] (single i.v. 40 mg/kg, compared to the untreated control (p<0.01)), the tumour growth delay entry is “statistically significant tumour growth delay”.

One may read the IC50 as the concentration at which inhibition is half-maximal. Read a high IC50 as weaker potency. In general, GI50 refers to the concentration that inhibits growth by half. The term LC50 denotes the concentration that kills 50% of the test population. In general, TGI refers to the concentration at which net growth stops. Low readings indicate more potent growth arrest, high ones less potent growth arrest.

The record behind these values is US9598448B2, “Osmium (II) arene imino anti-cancer complexes” (University of Warwick, priority 2010, dated 2017).
